One data set relates to HEL. As to the kind of experiment: Antiproliferative activity against HEL cells harboring JAK2 V617F mutant measured after 3 days by CCK8 assay. In kind it is functional, cell-based. As to conditions: Homo sapiens, 72 h.
Data set [1] deals with T1, Tyrosine-protein kinase JAK2 (Homo sapiens, UniProt O60674). As to conditions: Sf9.
Data set [2] concerns the target T1, Tyrosine-protein kinase JAK2. As to the kind of experiment: Inhibition of human recombinant N-terminal hexahistidine tagged JAK2 JH1 catalytic domain (835 to 1132 residues) expressed in baculovirus infected Sf9 cells using Tyr6 peptide as substrate incubated for 30 secs under shaking condition measured after 1 hr by Z'-LYTE assay.
Data set [3] addresses Non-receptor tyrosine-protein kinase TYK2 (Homo sapiens, UniProt P29597). The data set is described as follows: Inhibition of TYK2 (unknown origin) using peptide as substrate preincubated for 10 mins followed by substrate addition by mobility shift assay.
For data set [4], the species on record is Homo sapiens. The data set is described as follows: Selectivity ratio of IC50 for human recombinant N-terminal hexahistidine tagged JAK1 JH1 catalytic domain (854 to 1154 residues) expressed in baculovirus infected Sf9 cells to IC50 for human recombinant N-terminal hexahistidine tagged JAK2 JH1 catalytic domain (835 to 1132 residues) expressed in baculovirus infected Sf9 cells.

Data set [5] deals with Tyrosine-protein kinase JAK1 (Homo sapiens, UniProt P23458). The data set is described as follows: Inhibition of human recombinant N-terminal hexahistidine tagged JAK1 JH1 catalytic domain (854 to 1154 residues) expressed in baculovirus infected Sf9 cells using Tyr6 peptide as substrate incubated for 30 secs under shaking condition measured after 1 hr by Z'-LYTE assay.
For data set [6], the species on record is Homo sapiens. As to the kind of experiment: Selectivity ratio of IC50 for TYK2 (unknown origin) to IC50 for human recombinant N-terminal hexahistidine tagged JAK2 JH1 catalytic domain (835 to 1132 residues) expressed in baculovirus infected Sf9 cells.
In data set [7] the target is T2, Tyrosine-protein kinase JAK3 (Homo sapiens, UniProt P52333).
T2 sequence (P52333 whole entry): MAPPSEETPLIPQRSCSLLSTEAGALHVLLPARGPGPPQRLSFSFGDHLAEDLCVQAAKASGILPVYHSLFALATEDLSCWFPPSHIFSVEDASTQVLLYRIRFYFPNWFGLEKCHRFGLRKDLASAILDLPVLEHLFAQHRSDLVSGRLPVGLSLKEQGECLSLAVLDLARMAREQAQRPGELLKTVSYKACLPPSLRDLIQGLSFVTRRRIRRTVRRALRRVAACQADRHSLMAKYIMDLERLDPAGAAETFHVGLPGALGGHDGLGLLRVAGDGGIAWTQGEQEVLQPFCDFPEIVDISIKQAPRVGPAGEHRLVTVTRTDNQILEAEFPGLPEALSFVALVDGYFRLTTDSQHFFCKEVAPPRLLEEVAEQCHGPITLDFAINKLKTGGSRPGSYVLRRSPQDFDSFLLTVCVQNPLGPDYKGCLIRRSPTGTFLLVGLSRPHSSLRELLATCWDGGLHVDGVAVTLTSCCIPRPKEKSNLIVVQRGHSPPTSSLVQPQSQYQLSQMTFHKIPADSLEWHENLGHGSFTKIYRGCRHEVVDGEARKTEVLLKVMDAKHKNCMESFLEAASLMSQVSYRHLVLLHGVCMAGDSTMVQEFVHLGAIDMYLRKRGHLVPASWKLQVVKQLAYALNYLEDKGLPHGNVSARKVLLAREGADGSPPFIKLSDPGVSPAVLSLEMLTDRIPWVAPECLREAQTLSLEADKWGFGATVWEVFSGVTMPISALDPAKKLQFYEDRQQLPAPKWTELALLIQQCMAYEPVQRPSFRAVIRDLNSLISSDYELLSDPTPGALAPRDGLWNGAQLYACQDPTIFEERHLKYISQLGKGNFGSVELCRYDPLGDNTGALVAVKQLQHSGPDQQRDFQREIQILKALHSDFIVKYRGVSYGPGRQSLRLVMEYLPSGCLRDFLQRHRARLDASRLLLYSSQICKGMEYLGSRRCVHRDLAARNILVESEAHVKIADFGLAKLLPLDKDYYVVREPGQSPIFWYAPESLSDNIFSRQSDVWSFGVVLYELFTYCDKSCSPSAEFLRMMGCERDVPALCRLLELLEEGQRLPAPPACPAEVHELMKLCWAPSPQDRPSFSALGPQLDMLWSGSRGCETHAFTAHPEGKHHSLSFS
The data set is described as follows: Inhibition of human recombinant C-terminal hexahistidine tagged JAK3 JH1 catalytic domain (811 to 1124 residues) expressed in baculovirus infected Sf9 cells using Tyr6 peptide as substrate incubated for 30 secs under shaking condition measured after 1 hr by Z'-LYTE assay.

For data set [8], the species on record is Homo sapiens. The data set is described as follows: Selectivity ratio of IC50 for human recombinant C-terminal hexahistidine tagged JAK3 JH1 catalytic domain (811 to 1124 residues) expressed in baculovirus infected Sf9 cells to IC50 for human recombinant N-terminal hexahistidine tagged JAK2 JH1 catalytic domain (835 to 1132 residues) expressed in baculovirus infected Sf9 cells.

Data set [9] can be described thus: Toxicity in incomplete Freund's adjuvant-induced Wistar rat arthritic model assessed as effect on body weight growth at 0.3 mg/kg, po administered daily for 28 days starting from 8 days post-immunization measured every 3 days during compound dosing. As to conditions: in vivo. In kind it is organism-based.
Data set [10] has as its system Rattus norvegicus. As to the kind of experiment: Antiarthritic activity in incomplete Freund's adjuvant-induced arthritis model Wistar rat at 0.3 mg/kg, po administered daily for 28 days starting from 8 days post-immunization measured daily during compound. In kind it is functional, organism-based.
For data set [11], the target named is T1, Tyrosine-protein kinase JAK2. The data set is described as follows: Inhibition of human recombinant N-terminal hexahistidine tagged JAK2 JH1 catalytic domain (835 to 1132 residues) expressed in baculovirus infected Sf9 cells at 1 uM using Tyr6 peptide as substrate incubated for 30 secs under shaking condition measured after 1 hr by Z'-LYTE assay relative to control.

Data set [12] relates to Rattus norvegicus. As to the kind of experiment: Antiarthritic activity in incomplete Freund's adjuvant-induced Wistar rat arthritic model assessed as decrease in arthritis swelling score at 50 mg/kg, po administered daily for 28 days starting from 8 days post-immunization measured daily during compound dosing. In kind it is functional, organism-based.
Data set [13] relates to Rattus norvegicus. The data set is described as follows: Antiarthritic activity in incomplete Freund's adjuvant-induced Wistar rat arthritic model assessed as decrease in arthritic incidences at 10 to 50 mg/kg, po administered daily for 28 days starting from 8 days post-immunization measured daily during compound dosing. The class given is functional, organism-based.
A short description of data set [14]: Toxicity in incomplete Freund's adjuvant-induced Wistar rat arthritic model assessed as effect on body weight growth at 10 to 50 mg/kg, po administered daily for 28 days starting from 8 days post-immunization measured every 3 days during compound dosing. In kind it is organism-based. The conditions noted are these: in vivo.
In data set [15] the test system is Rattus norvegicus. The data set is described as follows: Antiarthritic activity in po dosed incomplete Freund's adjuvant-induced Wistar rat arthritic model assessed as reduction in foot swelling administered daily for 28 days starting from 8 days post-immunization measured daily during compound dosing. In kind it is functional, organism-based.

The values that follow come from ChEMBL document CHEMBL4340536, “Design, synthesis and structure-activity relationship study of aminopyridine derivatives as novel inhibitors of Janus kinase 2” (Bioorg Med Chem Lett, 2019).

The source made the active and inactive calls. The rule behind the calls is not given here. Some results are limits rather than exact numbers.

T1 sequence (O60674 whole entry, the tested form may be a part): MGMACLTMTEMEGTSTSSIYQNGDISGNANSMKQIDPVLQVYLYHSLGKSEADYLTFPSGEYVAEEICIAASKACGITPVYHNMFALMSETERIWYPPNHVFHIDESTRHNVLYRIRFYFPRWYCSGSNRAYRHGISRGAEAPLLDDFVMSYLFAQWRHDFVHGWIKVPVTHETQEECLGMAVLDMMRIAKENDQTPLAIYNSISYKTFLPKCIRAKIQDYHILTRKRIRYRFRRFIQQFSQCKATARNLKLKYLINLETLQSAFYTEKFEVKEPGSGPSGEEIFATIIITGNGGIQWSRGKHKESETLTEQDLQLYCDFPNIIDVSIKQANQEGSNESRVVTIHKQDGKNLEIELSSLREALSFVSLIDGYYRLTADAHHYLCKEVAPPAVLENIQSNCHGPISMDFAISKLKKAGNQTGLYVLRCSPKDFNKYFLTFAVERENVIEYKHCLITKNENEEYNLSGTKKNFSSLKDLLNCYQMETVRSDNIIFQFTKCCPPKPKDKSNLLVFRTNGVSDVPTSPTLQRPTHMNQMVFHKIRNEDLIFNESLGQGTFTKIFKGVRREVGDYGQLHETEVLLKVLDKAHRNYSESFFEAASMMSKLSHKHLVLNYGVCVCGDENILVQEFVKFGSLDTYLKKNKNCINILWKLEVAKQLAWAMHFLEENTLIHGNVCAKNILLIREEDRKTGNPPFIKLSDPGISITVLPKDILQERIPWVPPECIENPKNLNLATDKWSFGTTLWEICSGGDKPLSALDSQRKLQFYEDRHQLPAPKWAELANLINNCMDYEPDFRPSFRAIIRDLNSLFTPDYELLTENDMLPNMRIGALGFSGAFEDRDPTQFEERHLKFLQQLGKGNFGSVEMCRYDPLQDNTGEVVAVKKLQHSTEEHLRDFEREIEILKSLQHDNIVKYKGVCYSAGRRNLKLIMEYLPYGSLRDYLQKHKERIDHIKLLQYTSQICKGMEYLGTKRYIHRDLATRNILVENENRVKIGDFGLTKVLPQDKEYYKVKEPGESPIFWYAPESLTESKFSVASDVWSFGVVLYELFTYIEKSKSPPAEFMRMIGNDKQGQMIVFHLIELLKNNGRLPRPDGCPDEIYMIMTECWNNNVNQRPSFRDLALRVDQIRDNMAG
Non-receptor tyrosine-protein kinase TYK2, sequence (P29597 whole entry, the tested form may be a part): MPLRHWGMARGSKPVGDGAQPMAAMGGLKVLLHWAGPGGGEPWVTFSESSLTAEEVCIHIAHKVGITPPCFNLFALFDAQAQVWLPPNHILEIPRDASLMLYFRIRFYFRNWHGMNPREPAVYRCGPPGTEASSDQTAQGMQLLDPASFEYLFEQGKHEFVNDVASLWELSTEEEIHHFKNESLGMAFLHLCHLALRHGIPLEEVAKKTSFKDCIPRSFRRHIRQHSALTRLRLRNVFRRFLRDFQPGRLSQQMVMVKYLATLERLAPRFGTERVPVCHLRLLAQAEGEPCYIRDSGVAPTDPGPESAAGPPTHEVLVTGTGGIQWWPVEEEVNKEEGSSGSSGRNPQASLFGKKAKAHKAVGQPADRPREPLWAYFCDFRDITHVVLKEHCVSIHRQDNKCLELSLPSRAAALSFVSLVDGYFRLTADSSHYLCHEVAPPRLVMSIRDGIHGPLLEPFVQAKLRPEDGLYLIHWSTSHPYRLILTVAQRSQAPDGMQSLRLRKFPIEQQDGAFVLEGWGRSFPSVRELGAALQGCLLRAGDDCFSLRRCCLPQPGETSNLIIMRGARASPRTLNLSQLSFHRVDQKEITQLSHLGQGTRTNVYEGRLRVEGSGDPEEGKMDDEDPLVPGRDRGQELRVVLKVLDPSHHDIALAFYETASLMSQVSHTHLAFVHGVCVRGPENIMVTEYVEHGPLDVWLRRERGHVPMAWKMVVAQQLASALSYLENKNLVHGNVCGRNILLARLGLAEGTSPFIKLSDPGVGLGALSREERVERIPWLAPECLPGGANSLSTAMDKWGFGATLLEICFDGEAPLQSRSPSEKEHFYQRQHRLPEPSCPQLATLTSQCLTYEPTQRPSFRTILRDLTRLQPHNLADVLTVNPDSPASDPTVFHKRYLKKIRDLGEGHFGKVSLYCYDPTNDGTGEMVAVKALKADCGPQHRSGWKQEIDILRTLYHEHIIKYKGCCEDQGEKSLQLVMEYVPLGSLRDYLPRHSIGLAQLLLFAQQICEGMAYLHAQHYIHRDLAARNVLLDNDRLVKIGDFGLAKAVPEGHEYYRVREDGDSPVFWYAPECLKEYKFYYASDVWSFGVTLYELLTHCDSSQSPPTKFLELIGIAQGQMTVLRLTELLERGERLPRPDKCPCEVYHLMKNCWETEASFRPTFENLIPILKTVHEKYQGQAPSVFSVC
Tyrosine-protein kinase JAK1, sequence (P23458 whole entry, the tested form may be a part): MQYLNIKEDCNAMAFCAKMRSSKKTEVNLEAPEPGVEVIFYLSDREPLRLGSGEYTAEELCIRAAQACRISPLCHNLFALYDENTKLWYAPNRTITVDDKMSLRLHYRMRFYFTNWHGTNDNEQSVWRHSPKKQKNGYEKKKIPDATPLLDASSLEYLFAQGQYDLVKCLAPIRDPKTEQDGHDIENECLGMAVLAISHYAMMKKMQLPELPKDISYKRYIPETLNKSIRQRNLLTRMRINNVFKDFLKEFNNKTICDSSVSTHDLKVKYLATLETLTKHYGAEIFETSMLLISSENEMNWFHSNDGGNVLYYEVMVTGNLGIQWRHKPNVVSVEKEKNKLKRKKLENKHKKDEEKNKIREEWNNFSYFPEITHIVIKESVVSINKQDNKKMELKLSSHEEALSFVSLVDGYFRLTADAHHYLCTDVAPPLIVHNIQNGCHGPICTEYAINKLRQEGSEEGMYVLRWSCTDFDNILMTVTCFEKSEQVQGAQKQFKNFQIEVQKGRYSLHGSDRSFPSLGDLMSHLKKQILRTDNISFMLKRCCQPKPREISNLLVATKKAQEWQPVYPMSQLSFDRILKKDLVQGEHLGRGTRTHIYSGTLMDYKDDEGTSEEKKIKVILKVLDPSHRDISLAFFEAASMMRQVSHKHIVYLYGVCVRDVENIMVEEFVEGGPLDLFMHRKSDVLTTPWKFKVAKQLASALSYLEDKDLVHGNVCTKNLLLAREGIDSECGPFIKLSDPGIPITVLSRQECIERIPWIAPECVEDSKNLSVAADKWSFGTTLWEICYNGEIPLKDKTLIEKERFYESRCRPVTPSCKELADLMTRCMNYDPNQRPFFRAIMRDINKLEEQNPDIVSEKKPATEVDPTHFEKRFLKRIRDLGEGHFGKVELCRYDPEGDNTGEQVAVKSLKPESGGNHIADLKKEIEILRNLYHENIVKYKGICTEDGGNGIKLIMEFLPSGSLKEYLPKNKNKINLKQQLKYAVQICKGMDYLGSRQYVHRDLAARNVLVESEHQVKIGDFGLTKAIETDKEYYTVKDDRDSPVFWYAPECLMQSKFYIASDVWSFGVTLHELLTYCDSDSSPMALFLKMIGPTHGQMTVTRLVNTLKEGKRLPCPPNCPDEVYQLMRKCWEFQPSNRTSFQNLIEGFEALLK

Regarding `CC(Oc1cc(-c2ccccc2)cnc1N)c1cc(F)ccc1Cl` (stereo not drawn), the IC50 with HEL was more than 100000 nM.

In turn, `CC(Oc1cc(-c2cnn(C3CCNCC3)c2)cnc1N)C1CCCCC1` (stereo not drawn) returned an IC50 with HEL of 20900 nM.

Compound `C[C@@H](Oc1cc(-c2cnn(C3CCNCC3)c2)cnc1N)c1c(Cl)ccc(F)c1Cl` [CRIZOTINIB] gave an IC50 with HEL of 4720 nM. For the same compound, the ΔTm in [1] was determined as 7.88 °C.

Regarding `CC(Oc1cc(-c2cccnc2)cnc1N)c1c(Cl)ccc(F)c1Cl` (stereo not drawn), the half-inhibitory concentration (IC50) with HEL turned out to be 20100 nM; in [2] it was 3050 nM.

Take `CC(Oc1cc(-c2cnn(C3CCNCC3)c2)cnc1N)c1ccccc1` (stereo not drawn): the values for the IC50 (with HEL; in data set [2]) were 29600 nM and 215 nM, respectively.

Consider `CC(Oc1cc(-c2cn[nH]c2)cnc1N)c1cc(F)ccc1Cl` (stereo not drawn), for which the 50% inhibitory concentration (IC50) in data set [3] is 1450 nM; in data set [5], 82 nM; with HEL, 4850 nM; in [7], 965 nM. In addition, the results for the Ratio IC50 in the data set listed under Homo sapiens [4], in the data set filed under Homo sapiens [6] and in the data set filed under Homo sapiens [8] were 5, 91 and 60, respectively.

For `CN(Cc1cnc2nc(N)nc(N)c2n1)c1ccc(C(=O)N[C@@H](CCC(=O)O)C(=O)O)cc1` [METHOTREXATE], the Activity result in data set [9] is listed as “Toxic”. Further, the outcome in the data set with Rattus norvegicus [10] was Active.

Compound `CC(Oc1cc(-c2ccc(N3CCNCC3)cc2)cnc1N)c1cc(F)ccc1Cl` (stereo not drawn) came in with an IC50 in the data set on HEL of 19700 nM.

In the data set on HEL, `CC(Oc1cc(-c2cnn(C3CCNCC3)c2)cnc1N)c1c(Cl)cccc1Cl` (stereo not drawn) displayed an IC50 of 28400 nM.

The compound `CC(Oc1cc(-c2ccc(C3CCNCC3)cc2)cnc1N)c1cc(F)ccc1Cl` (stereo not drawn) returned an IC50 in the data set with HEL of 16000 nM.

For the compound `CC(Oc1cc(-c2ccccc2)cnc1N)c1c(Cl)ccc(F)c1Cl` (stereo not drawn), the IC50 in the data set with HEL was more than 100000 nM. The inhibition in data set [11] worked out at 7.15%.

Turning to `CC(Oc1cc(-c2ccc(N3CCNCC3)nc2)cnc1N)c1c(Cl)ccc(F)c1Cl` (stereo not drawn), the figures for the IC50 (in the data set on HEL; in data set [2]) were 7760 nM and 804 nM, respectively.

Regarding `N#CC[C@H](C1CCCC1)n1cc(-c2ncnc3[nH]ccc23)cn1` [RUXOLITINIB], in the data set on HEL, the IC50 came out at 7640 nM.

Consider `CC(Oc1cc(-c2cnn(C3CCNCC3)c2)cnc1N)c1cc(F)ccc1Cl` (stereo not drawn), for which the IC50 in data set [3] came out at 1300 nM; in data set [5], 660 nM; in the data set with HEL, 15000 nM; in data set [2], 6 nM; in data set [7], 513 nM. Besides, the result with Rattus norvegicus [12] and in the data set with Rattus norvegicus [13] was Active. In addition, the Ratio IC50 worked out at 110 in the data set listed under Homo sapiens [4], 216 in the data set filed under Homo sapiens [6] and 86 in the data set listed under Homo sapiens [8]. Moreover, the values for the Activity entry (in [14]; in the data set on Rattus norvegicus [15]) were “Non-Toxic” and “Dose-dependent effect”, respectively.

On to `COc1ccc(F)cc1C(C)Oc1cc(-c2cnn(C3CCNCC3)c2)cnc1N` (stereo not drawn), for which the half-inhibitory concentration (IC50) in data set [3] was 794 nM; in data set [5] it was 1800 nM; in the data set on HEL it was 4190 nM; in [7], 1580 nM. Moreover, the Ratio IC50 in the data set filed under Homo sapiens [4] was 598; in the data set filed under Homo sapiens [6], 264; in the data set listed under Homo sapiens [8], 528.

`CC(Oc1cc(-c2cccc(C3CCNCC3)c2)cnc1N)c1cc(F)ccc1Cl` (stereo not drawn): in the data set on HEL, the half-inhibitory concentration (IC50) was 6200 nM.

With `CC(Oc1cc(-c2cnn(C3CCNCC3)c2)cnc1N)c1c(Cl)ccc(F)c1Cl` (stereo not drawn), in the data set on HEL, half-maximal inhibition (IC50) was put at 6580 nM.

Turning to `CC(Oc1cc(-c2cncc(N3CCNCC3)c2)cnc1N)c1c(Cl)ccc(F)c1Cl` (stereo not drawn), the concentration for half-maximal inhibition (IC50) came to 7450 nM in the data set with HEL and 119 nM in data set [2].

Take `CC(Oc1cc(-c2cnn(C3CCOCC3)c2)cnc1N)c1c(Cl)ccc(F)c1Cl` (stereo not drawn): the IC50 with HEL was more than 100000 nM; in data set [2], 65 nM.

On to `CC(Oc1cc(-c2cccc(N3CCNCC3)c2)cnc1N)c1cc(F)ccc1Cl` (stereo not drawn), for which the IC50 in data set [3] was found to be 2530 nM; in [5], 120 nM; in the data set with HEL, 7200 nM; in data set [7], 2790 nM. Further, the Ratio IC50 in the data set listed under Homo sapiens [4] turned out to be 4; in the data set listed under Homo sapiens [6], 94; in the data set filed under Homo sapiens [8], 107.

As to `CC(Nc1cc(-c2cnn(C3CCNCC3)c2)cnc1N)c1c(Cl)ccc(F)c1Cl` (stereo not drawn), the figures for the IC50 (with HEL; in data set [2]) were 10800 nM and 126 nM, respectively.

Take `COc1ccc(F)c(Cl)c1C(C)Oc1cc(-c2cnn(C3CCNCC3)c2)cnc1N` (stereo not drawn): the IC50 in data set [3] came to 774 nM; in [5] it was 1220 nM; with HEL, 13600 nM; in data set [2], 26 nM; in [7], 1760 nM. Moreover, the Ratio IC50 in the data set listed under Homo sapiens [4] was determined as 46; in the data set listed under Homo sapiens [6], 30; in the data set filed under Homo sapiens [8] it was 66.

Compound `CCC(Oc1cc(-c2cnn(C3CCNCC3)c2)cnc1N)c1c(Cl)ccc(F)c1Cl` (stereo not drawn) showed an IC50 with HEL of 9980 nM.
